{
  "source": "paper PMC10924921",
  "about": "“Mi-2β promotes immune evasion in melanoma by activating EZH2 methylation” (Nature Communications, 2024)",
  "test_in_all_cases": "biochemical",
  "parameters_in_all_cases": "KINOMEscan active-site competition binding panel (468 kinase assays), per cent of control at 1000 nM",
  "details_in_all_cases": "KINOMEscan per cent of control (binding competition); read-out: Percent Control",
  "key": {"[1]": {"biological_target": "T1, ABL1(Q252H)-nonphosphorylated (Homo sapiens, UniProt P00519, Q252H)", "T1 construct": "nonphosphorylated", "source_text": "(§1) Figure S7 / Percent Control"}, "[2]": {"biological_target": "T2, ABL1(Q252H)-phosphorylated (Homo sapiens, UniProt P00519, Q252H)", "T2 construct": "phosphorylated", "source_text": "as §1"}, "[3]": {"biological_target": "T3, ABL1(T315I)-nonphosphorylated (Homo sapiens, UniProt P00519, T315I)", "T3 construct": "nonphosphorylated", "source_text": "as §1"}, "ACVR1B": {"biological_target": "ACVR1B (Homo sapiens, UniProt P36896)", "sequence (P36896 whole entry)": "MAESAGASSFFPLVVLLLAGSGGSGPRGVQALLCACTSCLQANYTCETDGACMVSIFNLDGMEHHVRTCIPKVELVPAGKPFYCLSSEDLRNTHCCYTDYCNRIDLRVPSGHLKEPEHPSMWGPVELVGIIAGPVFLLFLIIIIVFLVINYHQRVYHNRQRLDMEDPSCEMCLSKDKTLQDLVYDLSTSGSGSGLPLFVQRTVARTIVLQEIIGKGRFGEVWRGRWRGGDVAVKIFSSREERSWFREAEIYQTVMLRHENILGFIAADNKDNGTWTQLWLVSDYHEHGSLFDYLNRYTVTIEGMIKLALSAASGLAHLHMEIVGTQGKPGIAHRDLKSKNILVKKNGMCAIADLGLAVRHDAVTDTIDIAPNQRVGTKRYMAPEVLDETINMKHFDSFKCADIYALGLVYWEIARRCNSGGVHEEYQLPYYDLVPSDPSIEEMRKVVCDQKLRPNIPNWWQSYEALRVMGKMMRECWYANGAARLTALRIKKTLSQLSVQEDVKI", "source_text": "as §1"}, "BRSK1": {"biological_target": "BRSK1 (Homo sapiens, UniProt Q8TDC3)", "sequence (Q8TDC3 whole entry)": "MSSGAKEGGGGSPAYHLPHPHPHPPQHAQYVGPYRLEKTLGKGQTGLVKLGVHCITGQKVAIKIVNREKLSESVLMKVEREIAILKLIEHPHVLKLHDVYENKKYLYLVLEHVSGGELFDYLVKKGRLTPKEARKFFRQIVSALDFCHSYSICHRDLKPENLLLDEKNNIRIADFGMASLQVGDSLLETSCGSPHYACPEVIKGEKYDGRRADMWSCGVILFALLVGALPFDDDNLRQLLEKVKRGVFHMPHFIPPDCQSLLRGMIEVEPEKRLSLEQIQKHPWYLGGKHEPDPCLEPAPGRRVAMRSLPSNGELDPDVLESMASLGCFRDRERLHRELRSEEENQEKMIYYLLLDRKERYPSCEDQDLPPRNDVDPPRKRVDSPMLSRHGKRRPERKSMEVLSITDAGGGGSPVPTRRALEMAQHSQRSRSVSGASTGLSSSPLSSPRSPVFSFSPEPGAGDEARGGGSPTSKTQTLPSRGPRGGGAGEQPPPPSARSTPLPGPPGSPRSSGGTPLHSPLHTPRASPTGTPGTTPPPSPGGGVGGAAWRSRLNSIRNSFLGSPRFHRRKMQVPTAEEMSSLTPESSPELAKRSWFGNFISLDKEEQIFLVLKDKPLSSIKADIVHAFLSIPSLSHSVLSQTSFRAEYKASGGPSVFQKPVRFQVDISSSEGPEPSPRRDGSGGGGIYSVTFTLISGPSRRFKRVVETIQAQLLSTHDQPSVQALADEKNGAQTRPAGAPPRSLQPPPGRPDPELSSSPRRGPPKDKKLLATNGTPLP", "source_text": "as §1"}, "CDC2L2": {"biological_target": "T4, CDC2L2 (Homo sapiens, UniProt Q9UQ88)", "T4 construct": "gene CDK11A", "source_text": "as §1"}, "CSNK1G3": {"biological_target": "CSNK1G3 (Homo sapiens, UniProt Q9Y6M4)", "sequence (Q9Y6M4 whole entry)": "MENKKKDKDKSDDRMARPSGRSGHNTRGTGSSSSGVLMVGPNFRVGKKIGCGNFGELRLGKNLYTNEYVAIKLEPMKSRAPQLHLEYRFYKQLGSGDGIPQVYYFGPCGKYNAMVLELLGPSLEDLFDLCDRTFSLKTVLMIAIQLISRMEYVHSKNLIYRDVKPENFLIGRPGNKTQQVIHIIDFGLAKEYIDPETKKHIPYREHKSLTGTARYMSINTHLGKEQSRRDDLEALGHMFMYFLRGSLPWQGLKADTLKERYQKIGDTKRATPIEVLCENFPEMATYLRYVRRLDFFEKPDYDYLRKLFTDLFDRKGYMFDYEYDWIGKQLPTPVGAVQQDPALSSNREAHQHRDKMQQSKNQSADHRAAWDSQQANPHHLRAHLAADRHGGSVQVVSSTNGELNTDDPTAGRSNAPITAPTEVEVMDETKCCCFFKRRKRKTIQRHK", "source_text": "as §1"}, "DAPK1": {"biological_target": "DAPK1 (Homo sapiens, UniProt P53355)", "sequence (P53355 whole entry)": "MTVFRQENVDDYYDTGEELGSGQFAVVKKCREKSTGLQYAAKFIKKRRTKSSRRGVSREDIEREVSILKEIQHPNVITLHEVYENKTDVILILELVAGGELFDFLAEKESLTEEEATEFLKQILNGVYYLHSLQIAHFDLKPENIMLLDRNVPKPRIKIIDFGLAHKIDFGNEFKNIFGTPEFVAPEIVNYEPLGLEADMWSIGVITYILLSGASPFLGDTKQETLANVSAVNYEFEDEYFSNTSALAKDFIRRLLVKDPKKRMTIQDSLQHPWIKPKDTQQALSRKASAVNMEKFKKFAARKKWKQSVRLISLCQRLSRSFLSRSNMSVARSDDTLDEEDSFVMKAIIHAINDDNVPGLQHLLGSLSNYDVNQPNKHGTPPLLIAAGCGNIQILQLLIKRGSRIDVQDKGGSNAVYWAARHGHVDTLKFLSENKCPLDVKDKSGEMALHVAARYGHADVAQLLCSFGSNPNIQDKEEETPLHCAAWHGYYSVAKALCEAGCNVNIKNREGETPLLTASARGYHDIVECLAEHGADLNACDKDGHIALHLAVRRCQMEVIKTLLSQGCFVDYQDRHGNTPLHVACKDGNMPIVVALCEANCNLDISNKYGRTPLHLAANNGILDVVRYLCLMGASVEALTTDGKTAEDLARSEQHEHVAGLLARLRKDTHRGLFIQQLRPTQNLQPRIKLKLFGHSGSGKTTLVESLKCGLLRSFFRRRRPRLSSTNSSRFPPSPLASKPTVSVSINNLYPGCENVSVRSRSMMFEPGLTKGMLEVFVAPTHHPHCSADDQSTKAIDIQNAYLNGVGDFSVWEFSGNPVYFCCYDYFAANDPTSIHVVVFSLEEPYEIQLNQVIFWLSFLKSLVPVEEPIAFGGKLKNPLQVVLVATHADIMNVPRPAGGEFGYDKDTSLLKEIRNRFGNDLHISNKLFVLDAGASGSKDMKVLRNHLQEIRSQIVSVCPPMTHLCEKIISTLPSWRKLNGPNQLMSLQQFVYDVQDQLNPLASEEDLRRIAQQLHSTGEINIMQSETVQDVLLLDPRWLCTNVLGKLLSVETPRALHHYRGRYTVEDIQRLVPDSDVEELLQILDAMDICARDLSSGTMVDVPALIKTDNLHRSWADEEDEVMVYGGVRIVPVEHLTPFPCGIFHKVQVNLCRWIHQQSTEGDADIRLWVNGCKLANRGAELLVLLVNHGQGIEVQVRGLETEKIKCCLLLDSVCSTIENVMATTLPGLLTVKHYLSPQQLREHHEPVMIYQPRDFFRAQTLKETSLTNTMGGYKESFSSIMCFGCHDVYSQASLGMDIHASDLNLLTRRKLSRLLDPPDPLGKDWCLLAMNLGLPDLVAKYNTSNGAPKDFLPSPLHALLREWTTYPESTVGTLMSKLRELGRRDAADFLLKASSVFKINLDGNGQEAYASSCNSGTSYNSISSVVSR", "source_text": "as §1"}, "EGFR(E746-A750del)": {"biological_target": "EGFR(E746-A750del) (Homo sapiens, UniProt P00533, DEL746-750)", "source_text": "as §1"}, "FLT3(D835H)": {"biological_target": "FLT3(D835H) (Homo sapiens, UniProt P36888, D835H)", "source_text": "as §1"}, "FLT3(D835Y)": {"biological_target": "FLT3(D835Y) (Homo sapiens, UniProt P36888, D835Y)", "source_text": "as §1"}, "HCK": {"biological_target": "HCK (Homo sapiens, UniProt P08631)", "source_text": "as §1"}, "IKK-alpha": {"biological_target": "T5, IKK-alpha (Homo sapiens, UniProt O15111)", "T5 construct": "gene CHUK", "source_text": "as §1"}, "IKK-beta": {"biological_target": "T6, IKK-beta (Homo sapiens, UniProt O14920)", "T6 construct": "gene IKBKB", "source_text": "as §1"}, "KIT(D816V)": {"biological_target": "KIT(D816V) (Homo sapiens, UniProt P10721, D816V)", "source_text": "as §1"}, "MEK5": {"biological_target": "T7, MEK5 (Homo sapiens, UniProt Q13163)", "T7 construct": "gene MAP2K5", "T7 sequence (Q13163 whole entry)": "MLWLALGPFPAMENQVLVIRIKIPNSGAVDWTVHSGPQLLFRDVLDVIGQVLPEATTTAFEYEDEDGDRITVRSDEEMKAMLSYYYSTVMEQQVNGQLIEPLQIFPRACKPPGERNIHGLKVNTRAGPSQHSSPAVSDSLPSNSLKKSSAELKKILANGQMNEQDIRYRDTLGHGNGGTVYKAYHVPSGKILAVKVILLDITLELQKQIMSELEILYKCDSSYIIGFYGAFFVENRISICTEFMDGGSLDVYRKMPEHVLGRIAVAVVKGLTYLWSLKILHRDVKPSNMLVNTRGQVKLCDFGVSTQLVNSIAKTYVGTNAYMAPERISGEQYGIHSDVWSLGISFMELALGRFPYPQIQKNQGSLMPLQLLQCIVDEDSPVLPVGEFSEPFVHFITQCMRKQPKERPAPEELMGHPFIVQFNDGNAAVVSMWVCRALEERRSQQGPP", "source_text": "as §1"}, "MLK3": {"biological_target": "T8, MLK3 (Homo sapiens, UniProt Q16584)", "T8 construct": "gene MAP3K11", "source_text": "as §1"}, "MST4": {"biological_target": "T9, MST4 (Homo sapiens, UniProt Q9P289)", "T9 construct": "gene STK26", "source_text": "as §1"}, "PIP5K2C": {"biological_target": "T10, PIP5K2C (Homo sapiens, UniProt Q8TBX8)", "T10 construct": "gene PIP4K2C", "source_text": "as §1"}, "PRKD2": {"biological_target": "PRKD2 (Homo sapiens, UniProt Q9BZL6)", "source_text": "as §1"}, "[4]": {"biological_target": "T11, RSK3(Kin.Dom.2-C-terminal) (Homo sapiens, UniProt Q15349)", "T11 construct": "gene RPS6KA2; Kin.Dom.2-C-terminal", "T11 sequence (Q15349 whole entry)": "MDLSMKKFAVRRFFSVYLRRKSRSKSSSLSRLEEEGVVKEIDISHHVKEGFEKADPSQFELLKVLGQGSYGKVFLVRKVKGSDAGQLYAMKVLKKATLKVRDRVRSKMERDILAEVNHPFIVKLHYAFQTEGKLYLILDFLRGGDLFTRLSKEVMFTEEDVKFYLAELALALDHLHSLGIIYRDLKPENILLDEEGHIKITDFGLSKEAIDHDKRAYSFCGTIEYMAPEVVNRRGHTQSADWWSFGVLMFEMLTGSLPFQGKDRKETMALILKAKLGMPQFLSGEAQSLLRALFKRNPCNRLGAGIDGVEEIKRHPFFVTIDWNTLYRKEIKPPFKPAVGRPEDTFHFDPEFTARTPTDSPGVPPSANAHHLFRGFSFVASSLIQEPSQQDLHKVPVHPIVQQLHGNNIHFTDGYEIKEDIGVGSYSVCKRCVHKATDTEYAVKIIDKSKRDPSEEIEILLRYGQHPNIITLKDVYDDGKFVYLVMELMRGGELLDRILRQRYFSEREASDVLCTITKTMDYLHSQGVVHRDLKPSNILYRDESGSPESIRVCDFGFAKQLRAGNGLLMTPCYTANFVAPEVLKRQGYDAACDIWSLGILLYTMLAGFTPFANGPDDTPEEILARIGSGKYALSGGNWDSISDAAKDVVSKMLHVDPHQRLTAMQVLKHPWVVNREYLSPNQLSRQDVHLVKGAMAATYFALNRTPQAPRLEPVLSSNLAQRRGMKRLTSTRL", "source_text": "as §1"}, "TNIK": {"biological_target": "TNIK (Homo sapiens, UniProt Q9UKE5)", "source_text": "as §1"}, "TNK2": {"biological_target": "TNK2 (Homo sapiens, UniProt Q07912)", "source_text": "as §1"}, "p38-delta": {"biological_target": "T12, p38-delta (Homo sapiens, UniProt O15264)", "T12 construct": "gene MAPK13", "T12 sequence (O15264 whole entry)": "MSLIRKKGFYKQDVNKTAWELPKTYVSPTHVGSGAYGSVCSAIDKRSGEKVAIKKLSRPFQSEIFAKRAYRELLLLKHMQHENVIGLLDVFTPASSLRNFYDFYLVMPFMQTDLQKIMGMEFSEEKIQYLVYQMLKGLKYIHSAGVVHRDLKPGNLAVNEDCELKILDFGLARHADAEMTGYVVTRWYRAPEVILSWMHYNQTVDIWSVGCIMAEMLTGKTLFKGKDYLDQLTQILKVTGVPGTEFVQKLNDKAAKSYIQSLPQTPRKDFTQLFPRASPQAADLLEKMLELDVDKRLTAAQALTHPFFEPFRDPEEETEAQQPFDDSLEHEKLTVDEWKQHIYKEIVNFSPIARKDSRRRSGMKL", "source_text": "as §1"}},
  "data": [
    {"compound": "Cn1c(=O)[nH]c2ccc(-c3cccc(C(=O)NC4CCn5ccnc5C4)c3)cc21", "note": "(stereo not drawn) [Z36-MP5]", "values": [
      {"measurement": "remaining binding at 1 µM", "setting": "[1]", "result": 84, "unit": "%"},
      {"measurement": "remaining binding at 1 µM", "setting": "[2]", "result": 69, "unit": "%"},
      {"measurement": "remaining binding at 1 µM", "setting": "[3]", "result": 56, "unit": "%"},
      {"measurement": "remaining binding at 1 µM", "setting": "ACVR1B", "result": 94, "unit": "%"},
      {"measurement": "remaining binding at 1 µM", "setting": "BRSK1", "result": 92, "unit": "%"},
      {"measurement": "remaining binding at 1 µM", "setting": "CDC2L2", "result": 99, "unit": "%"},
      {"measurement": "remaining binding at 1 µM", "setting": "CSNK1G3", "result": 74, "unit": "%"},
      {"measurement": "remaining binding at 1 µM", "setting": "DAPK1", "result": 99, "unit": "%"},
      {"measurement": "remaining binding at 1 µM", "setting": "EGFR(E746-A750del)", "result": 63, "unit": "%"},
      {"measurement": "remaining binding at 1 µM", "setting": "FLT3(D835H)", "result": 81, "unit": "%"},
      {"measurement": "remaining binding at 1 µM", "setting": "FLT3(D835Y)", "result": 88, "unit": "%"},
      {"measurement": "remaining binding at 1 µM", "setting": "HCK", "result": 95, "unit": "%"},
      {"measurement": "remaining binding at 1 µM", "setting": "IKK-alpha", "result": 80, "unit": "%"},
      {"measurement": "remaining binding at 1 µM", "setting": "IKK-beta", "result": 66, "unit": "%"},
      {"measurement": "remaining binding at 1 µM", "setting": "KIT(D816V)", "result": 58, "unit": "%"},
      {"measurement": "remaining binding at 1 µM", "setting": "MEK5", "result": 60, "unit": "%"},
      {"measurement": "remaining binding at 1 µM", "setting": "MLK3", "result": 93, "unit": "%"},
      {"measurement": "remaining binding at 1 µM", "setting": "MST4", "result": 82, "unit": "%"},
      {"measurement": "remaining binding at 1 µM", "setting": "PIP5K2C", "result": 80, "unit": "%"},
      {"measurement": "remaining binding at 1 µM", "setting": "PRKD2", "result": 64, "unit": "%"},
      {"measurement": "remaining binding at 1 µM", "setting": "[4]", "result": 81, "unit": "%"},
      {"measurement": "remaining binding at 1 µM", "setting": "TNIK", "result": 98, "unit": "%"},
      {"measurement": "remaining binding at 1 µM", "setting": "TNK2", "result": 41, "unit": "%"},
      {"measurement": "remaining binding at 1 µM", "setting": "p38-delta", "result": 98, "unit": "%"}
    ]}
  ]
}
